{
  "source": "patent US10774112B2",
  "about": "“Biomimetic peptide and biodegradable delivery platform for the treatment of angiogenesis- and lymphangiogenesis-dependent diseases” (THE JOHNS HOPKINS UNIVERSITY, priority 2013, dated 2020)",
  "key": {"[1]": {"system": "microvascular endothelial cell (MEC)", "experiment": "MEC tube formation assay", "format": "cell-based", "conditions": "25 μM peptide; FIG. 3 C-D"}, "[2]": {"system": "human umbilical vein endothelial cells (HUVEC)", "experiment": "Adhesion assay (RT-CIM), HUVEC", "format": "cell-based", "conditions": "FIG. 1", "protocol": "Similar to the migration assays, the inhibition activity of the peptide in cellular adhesion was assessed using the RT-CIM technology. In this case, 25,000 cells/well were plated in 16 wells E-plates (Roche, Basel Switzerland) in the presence or absence of the peptide. The adhesion was monitored over time (3 hours) by measuring changes in the electrical impedance, which is a direct measure of the cells adhering on the electrodes. Assays were performed in at least two independent replicates and each replicate was performed using two experimental duplicates."}, "[3]": {"system": "insulin growth factor 1 (IGF1) signaling", "experiment": "IGF1 signaling in vitro in LEC", "format": "cell-based", "conditions": "FIG. 6"}, "[4]": {"experiment": "Accumulation in tumor and organs after systemic intravenous injection", "format": "in vivo", "conditions": "systemically intravenously injected; FIG. 31"}, "lymphangiogenesis": {"system": "lymphangiogenesis", "experiment": "Lymphangiogenesis in vivo (LYVE-1 staining)", "conditions": "FIG. 11"}, "[5]": {"system": "triple-negative breast cancer cell line SUM149", "experiment": "Proliferation assay (WST-1), SUM149", "format": "cell-based", "conditions": "in vitro; FIG. 7", "protocol": "(§1) A colorimetric based proliferation assay using WST-1 (Roche, 11644807001) proliferation reagent was carried out using HREC cells, HUVEC cells, and the breast cancer cells MDA-MB-231, MCF-7, and SUM149. 2000 cells/well were plated in 96-well plates and allowed to adhere overnight. On the following day, the media was exchanged with fully supplemented media containing peptides or equivalent DMSO vehicle for the controls. Three days later, the media containing the peptides was replaced with serum-free EBM-2 media containing WST-1 reagent and the plates were incubated for four hours as per the manufacturer's recommendations. Changes in color, due to the formazan dye resulted from the cleavage of the tetrazolium salt WST-1 by the mitochondrial succinate-tetrazolium reductase, were read on a Victor V fluorescence plate reader (Perkin Elmer, Mass.) by measuring the absorbance at 450 nm. Dose response curves of percent live cells (in comparison to untreated cells, but incubated in complete media with 0.2% DMSO) were created. Assays were performed in at least two independent replicates and each replicate was performed using three experimental triplicates."}, "[6]": {"system": "human retinal endothelial cells (HREC)", "experiment": "Proliferation assay (WST-1), HREC", "format": "cell-based", "conditions": "FIG. 2", "protocol": "as §1"}, "MDA-MB-231-luc tumors": {"system": "MDA-MB-231-luc tumors", "experiment": "TCM-induced metastasis model", "format": "in vivo, mice", "protocol": "TCM-Induced Metastasis Model.\nBefore tumor inoculation, athymic nude mice (female 5-6 weeks, 18-20 g) were treated with 50 μL TCM or SFM subcutaneously through the scruff for 2 weeks. After 2 weeks of TCM treatment, MDA-MB-231-luc-D3H2LN tumor xenografts were established in the same animals; the cells (2×10^6) were mixed with 50 μL complete media (RPMI-1640 supplemented with 10% FBS), and 50 μL Matrigel (High Concentrated, BD Biosciences) and injected into the upper inguinal mammary fat pad of the animals under anesthesia (50 mg/kg ketamine+5 mg/kg acepromazine in PBS, 50 μL/animal, intraperitoneally dosed). The primary tumor size was measured by using a caliper, and the volume w calculated, using the formula: V=0.52×a×b^2, where ‘a’ is the long axis, and ‘b’ is the short axis of the tumor. Animals were also imaged every week to track anterior tumor metastases, using the IVIS Xenogen 200 optical imager (Xenogen, Alameda, Calif.) after intraperitoneal injection of d-luciferin (Caliper 150 mg/kg). 100 μL D-luciferin (twice diluted) was intraperitoneally dosed on both sides of the abdomen (total 200 μL/animals) to prevent i.p. injection failure. […] Luciferase-mediated photon flux was quantified by using Living Image® 3D Analysis (Xenogen), and the average photon flux was obtained from eight lungs, eight brains, and 14-16 LNs as described before. […]"}},
  "data": [
    {"sequence": "LRRFSTAPFAFIDINDVINF (Artificial sequence based on human Collagen Type IV protein) [SP2043]", "values": [
      {"measurement": "MEC tube formation", "setting": "[1]", "value": "inhibit"},
      {"measurement": "adhesion of HUVEC", "setting": "[2]", "value": "inhibit"},
      {"measurement": "IGF1 signaling in LEC", "setting": "[3]", "value": "inhibit"},
      {"measurement": "accumulation in tumor and other organs", "setting": "[4]", "value": "accumulated in tumor as well as other organs"},
      {"measurement": "lymphangiogenesis as seen by LYVE-1 staining", "setting": "lymphangiogenesis", "value": "inhibited"},
      {"measurement": "proliferation of SUM149", "setting": "[5]", "value": "inhibit"},
      {"measurement": "proliferation of HREC", "setting": "[6]", "value": "inhibit"},
      {"measurement": "metastasis of MDA-MB-231-luc tumors to lymph nodes, vimentin antibody staining for human cells", "setting": "MDA-MB-231-luc tumors; FIG. 12B", "value": "inhibited"},
      {"measurement": "metastasis of MDA-MB-231-luc tumors to multiple organs, photon flux from tumor cells", "setting": "MDA-MB-231-luc tumors; tumor-conditioned media pre-treated metastasis model, FIG. 12A", "value": "inhibited"}
    ]}
  ]
}
